Laboratory results published in paper PMC11583123, “Linker Chemistry and Connectivity Fine-Tune the Immune Response and Kinetic Solubility of Conjugated NOD2/TLR7 Agonists” (Bioconjugate Chemistry, 2024).

Columns and labels:
[1] = Kinetic solubility in PBS (UHPLC, method of Hoelke et al.); format: physicochemical; conditions: for solubility kinetic: PBS, aqueous with cosolvent or surfactant or cyclodextrin, kinetic from dmso stock, 5% DMSO
Method: Second, the kinetic solubility of all individual building blocks (compounds 4-7) and conjugates was determined (results are listed in Table 1) in order to highlight how fine-tuning of linker traits can impact this physicochemical property. Kinetic solubility refers to the maximum solubility of a compound when it precipitates from a supersaturated solution, which is metastable and not in equilibrium; it was measured using the method described by Hoelke et al.[34] The length and composition of the linker as well as linkage site are important for activity and physicochemical characteristics of conjugates, which in turn affect their pharmacokinetic profiles. In general, the benzylic COOH was exploited exclusively as the linker attachment site in TLR7 agonist-featuring conjugates, while two potential linkage sites were considered in the structure of NOD2 agonist. […] In conjugates 22-24 and 29, the moieties were connected via the γ-COOH group of the NOD2 agonist. […] It has to be kept in mind that among the polyalkylethers, the structural requirements for aqueous solubility are poised toward the (−OCH2CH2−)n unit while (−OCH2CH2CH2−)n is not beneficial in this respect.[35] […]
suspension was filtered through a syringe filter (0.45 μm), diluted 2.25-fold with acetonitrile, and analyzed with UHPLC. The solubility was quantified with a five-point calibration curve from 500 to 0.8 μM generated by dilution of the original DMSO solution into a 1:1 mixture of acetonitrile and PBS. The content of DMSO in all solutions was fixed to 5% by adding the respective amounts of DMSO. The column used was Waters Acquity UPLC BEH C18 (1.7 μm, 2.1 × 50 mm). The eluent was a mixture of 0.1% TFA in water (A) and acetonitrile (B), with a gradient of (%B): 0−6 min, 5−95%; 6−8 min, 95%; 8−8.5 min, 95−5%. The column was thermostated at 40 °C.
3.1. Hek-Blue NOD2, TLR7 and TLR8 cells. […]
(BioTek Synergy microplate reader; Winooski, VT, USA). EC50 values were calculated using Prism

human NOD2 = molecular target: T1, human NOD2 (Homo sapiens, UniProt Q9HC29); experiment: HEK-Blue NOD2 NF-κB SEAP reporter assay; format: cell-based; conditions: HEK-Blue NOD2 cells
T1 construct: host or cells: HEK-Blue NOD2 (HEK293-derived)
Text: (§1) The building blocks and synthesized conjugates were initially assessed for their receptor-specific activities toward NOD2, TLR7 and TLR8 using the commercially available HEK-Blue NOD2, TLR7 and TLR8 reporter cell lines. These cell lines were derived from HEK293 cells by cotransfection of human NOD2/TLR7/TLR8 and an NF-κB-inducible secreted embryonic alkaline phosphatase (SEAP). Activation of NOD2/TLR7/TLR8, and subsequently of NF-κB, leads to the expression and secretion of SEAP, the levels of which can be quantified colorimetrically. […]
(§2) 3.1. Hek-Blue NOD2, TLR7 and TLR8 cells.
(§3) HEK-Blue NOD2, TLR7, and TLR8 cells (Invivogen, San Diego, CA, USA) were cultured according to the manufacturer instructions in Dulbecco’s modified Eagle’s medium (Sigma-Aldrich, St. Louis, MO, USA) supplemented with 10% heat-inactivated fetal bovine serum (Gibco), 2 mM L-glutamine (Sigma-Aldrich), 100 U/mL penicillin (Sigma-Aldrich), 100 µg/mL streptomycin (Sigma-Aldrich), and 100 µg/mL Normocin (Invivogen) for two passages. All subsequent passages of NOD2 and TLR8 cells were cultured in medium additionally supplemented with 100 µg/mL Zeocin and 30 µg/mL Blasticidin (Invivogen) and of TLR7 cells with 100 µg/mL Zeocin and 10 µg/mL Blasticidin. […]
(§4) The tested compounds were dissolved in DMSO and further diluted in culture medium to the desired final concentrations, such that the final DMSO concentration never exceeded 0.1%. […]
(§5) 3.4 NOD2/TLR7/TLR8 NF-kB reporter assay
(§6) HEK-Blue NOD2 cells (25,000 cells/well), TLR7 and TLR8 cells (40,000 cells/well) were seeded in 96-well plates in 100 µL HEK-Blue detection medium (Invivogen, San Diego, CA, USA) and treated with […]
(§7) corresponding vehicle (0.1% DMSO). After 18 h of incubation (37 °C, 5% CO2), secreted embryonic

human TLR7 = molecular target: T2, human TLR7 (Homo sapiens, UniProt Q9NYK1); experiment: HEK-Blue TLR7 NF-κB SEAP reporter assay; format: cell-based; conditions: for EC50 / TLR7 agonistic activity (in words): HEK-Blue TLR7 cells; for EC50: 18 h, eight concentrations (1 nM to 10 μM), mean ± SEM; for TLR7 agonistic activity (in words): up to 10 μM
T2 construct: host or cells: HEK-Blue TLR7 (HEK293-derived)
T2 sequence (Q9NYK1 27-1049): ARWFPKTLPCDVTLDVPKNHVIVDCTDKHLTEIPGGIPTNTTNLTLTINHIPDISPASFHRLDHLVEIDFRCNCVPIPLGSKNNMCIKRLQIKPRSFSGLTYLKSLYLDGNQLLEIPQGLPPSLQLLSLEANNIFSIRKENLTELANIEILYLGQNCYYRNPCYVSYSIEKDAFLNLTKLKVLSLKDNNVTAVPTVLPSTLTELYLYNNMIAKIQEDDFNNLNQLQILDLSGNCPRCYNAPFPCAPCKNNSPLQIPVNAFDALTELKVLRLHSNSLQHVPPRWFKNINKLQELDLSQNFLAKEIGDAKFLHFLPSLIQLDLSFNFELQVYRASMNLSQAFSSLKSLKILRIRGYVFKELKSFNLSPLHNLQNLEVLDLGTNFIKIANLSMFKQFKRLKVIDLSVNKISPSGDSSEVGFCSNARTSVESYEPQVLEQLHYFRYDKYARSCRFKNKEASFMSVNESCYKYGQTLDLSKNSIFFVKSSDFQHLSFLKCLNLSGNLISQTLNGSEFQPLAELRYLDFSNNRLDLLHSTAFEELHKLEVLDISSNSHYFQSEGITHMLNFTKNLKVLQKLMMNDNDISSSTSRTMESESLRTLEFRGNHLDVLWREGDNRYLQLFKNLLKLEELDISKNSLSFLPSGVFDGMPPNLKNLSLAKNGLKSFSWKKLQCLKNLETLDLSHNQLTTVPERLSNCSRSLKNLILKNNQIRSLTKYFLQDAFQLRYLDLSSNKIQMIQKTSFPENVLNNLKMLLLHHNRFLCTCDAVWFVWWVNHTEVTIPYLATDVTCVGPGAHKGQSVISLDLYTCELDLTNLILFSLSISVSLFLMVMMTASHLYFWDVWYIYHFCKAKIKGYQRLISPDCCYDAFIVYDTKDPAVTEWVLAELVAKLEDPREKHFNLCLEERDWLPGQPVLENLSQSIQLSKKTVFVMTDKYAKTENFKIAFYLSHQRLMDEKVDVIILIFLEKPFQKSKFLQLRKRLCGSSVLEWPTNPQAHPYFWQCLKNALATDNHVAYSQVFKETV
Text: as §1, §2, §3, §4, §5, §6, §7

human TLR8 = molecular target: T3, human TLR8 (Homo sapiens, UniProt Q9NR97); experiment: HEK-Blue TLR8 NF-κB SEAP reporter assay; format: cell-based; conditions: HEK-Blue TLR8 cells, 18 h, eight concentrations (1 nM to 10 μM), mean ± SEM
T3 construct: host or cells: HEK-Blue TLR8 (HEK293-derived)
T3 sequence (Q9NR97 27-1041): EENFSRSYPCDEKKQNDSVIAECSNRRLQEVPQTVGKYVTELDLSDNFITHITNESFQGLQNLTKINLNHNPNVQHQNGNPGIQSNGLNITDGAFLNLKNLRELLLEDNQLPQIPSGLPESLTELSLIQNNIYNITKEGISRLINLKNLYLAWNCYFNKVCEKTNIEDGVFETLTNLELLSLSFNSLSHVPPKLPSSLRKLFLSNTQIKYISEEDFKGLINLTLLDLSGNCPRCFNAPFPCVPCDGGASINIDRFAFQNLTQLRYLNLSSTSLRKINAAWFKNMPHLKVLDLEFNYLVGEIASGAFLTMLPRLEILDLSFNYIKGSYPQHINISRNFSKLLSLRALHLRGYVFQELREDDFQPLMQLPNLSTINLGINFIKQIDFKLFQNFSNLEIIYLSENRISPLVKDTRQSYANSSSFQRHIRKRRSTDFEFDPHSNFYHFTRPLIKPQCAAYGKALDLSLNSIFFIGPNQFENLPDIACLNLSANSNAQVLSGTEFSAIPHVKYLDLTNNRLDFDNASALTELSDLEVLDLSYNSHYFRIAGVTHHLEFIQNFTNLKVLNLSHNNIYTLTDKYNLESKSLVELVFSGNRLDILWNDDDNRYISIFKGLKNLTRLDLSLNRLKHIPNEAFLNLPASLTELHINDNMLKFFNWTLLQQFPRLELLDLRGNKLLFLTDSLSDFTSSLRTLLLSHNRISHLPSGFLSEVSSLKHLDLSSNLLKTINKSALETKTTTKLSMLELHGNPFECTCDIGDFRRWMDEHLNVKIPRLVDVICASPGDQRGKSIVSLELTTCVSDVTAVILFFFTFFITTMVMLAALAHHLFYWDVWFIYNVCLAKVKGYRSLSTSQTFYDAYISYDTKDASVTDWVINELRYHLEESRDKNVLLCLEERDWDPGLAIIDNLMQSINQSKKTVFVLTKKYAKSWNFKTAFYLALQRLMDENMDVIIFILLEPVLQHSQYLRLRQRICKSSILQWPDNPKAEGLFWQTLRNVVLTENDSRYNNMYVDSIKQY
Text: as §1, §2, §3, §4, §5, §6, §7

[2] = 18 h, eight concentrations (1 nM to 10 μM), mean ± SEM

T1 sequence (Q9HC29 whole entry): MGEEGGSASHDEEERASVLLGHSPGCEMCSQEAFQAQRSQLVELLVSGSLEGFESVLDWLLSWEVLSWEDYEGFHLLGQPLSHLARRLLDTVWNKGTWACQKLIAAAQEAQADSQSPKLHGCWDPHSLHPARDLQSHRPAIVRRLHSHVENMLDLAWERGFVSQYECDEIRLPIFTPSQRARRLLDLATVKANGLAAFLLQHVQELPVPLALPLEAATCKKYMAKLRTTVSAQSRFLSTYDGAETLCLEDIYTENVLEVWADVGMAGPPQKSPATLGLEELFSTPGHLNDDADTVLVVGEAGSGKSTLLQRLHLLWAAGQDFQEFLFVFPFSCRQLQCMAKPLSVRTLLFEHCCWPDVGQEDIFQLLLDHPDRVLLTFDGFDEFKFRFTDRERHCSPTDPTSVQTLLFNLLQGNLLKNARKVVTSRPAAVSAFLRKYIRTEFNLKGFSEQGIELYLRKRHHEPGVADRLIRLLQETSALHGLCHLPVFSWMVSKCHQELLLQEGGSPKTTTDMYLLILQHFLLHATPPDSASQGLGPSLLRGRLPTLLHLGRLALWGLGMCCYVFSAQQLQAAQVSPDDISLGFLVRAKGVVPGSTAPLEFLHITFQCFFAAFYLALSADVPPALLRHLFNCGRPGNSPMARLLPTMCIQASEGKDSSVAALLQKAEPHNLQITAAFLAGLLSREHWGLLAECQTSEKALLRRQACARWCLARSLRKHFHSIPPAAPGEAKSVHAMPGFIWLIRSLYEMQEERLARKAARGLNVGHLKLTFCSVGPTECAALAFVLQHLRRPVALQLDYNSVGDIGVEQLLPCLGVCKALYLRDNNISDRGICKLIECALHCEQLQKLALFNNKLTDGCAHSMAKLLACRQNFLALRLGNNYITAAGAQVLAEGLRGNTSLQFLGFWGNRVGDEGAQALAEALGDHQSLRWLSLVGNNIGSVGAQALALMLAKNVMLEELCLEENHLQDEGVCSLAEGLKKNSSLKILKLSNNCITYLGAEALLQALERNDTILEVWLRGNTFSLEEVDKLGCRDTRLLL

solubility kinetic [1] [µM] | EC50 (human TLR8) [nM] | Structure (SMILES) | EC50 (human NOD2; [2]) [nM] | EC50 (human TLR7) [nM] | Boost in solubility over conjugate 2 ([1]; ratio of kinetic solubilities in PBS) [fold] | TLR7 agonistic activity (in words) (human TLR7) | Enhancement of TLR7 activity over 22 and 29 (human TLR7; ratio of EC50 values) [fold] | EC50 (human NOD2) [nM]
469 | – | CCOCc1nc2c(N)nc3ccccc3c2n1CC(C)(C)O [Resiquimod (6), Resiquimod, reference compound] | – | – | – | – | – | –
1.9 | – | CCCCOc1nc(N)c2nc(O)n(Cc3ccc(C(=O)NCCCCCC(=O)Oc4ccc(/C=C/C(=O)NCC(=O)N[C@H](C(=O)N[C@H](CCC(=O)OCC)C(=O)OCC)C(C)C)cc4OC)cc3)c2n1 [compound 1] | 105 ± 2.8 | 98.6 ± 1.1 | – | – | – | –
3.67 | – | CCCCOc1nc(N)c2nc(O)n(Cc3ccc(C(=O)NCCOCCNC(=O)CC[C@@H](NC(=O)[C@@H](NC(=O)CNC(=O)/C=C/c4ccc(O)c(OC)c4)C(C)C)C(=O)OCC)cc3)c2n1 [compound 2] | > 10000 | 21.4 ± 1 | – | – | – | –
483 | – | CCCCOc1nc(N)c2nc(O)n(Cc3ccc(C(=O)O)cc3)c2n1 [compound 4, reference compound] | – | 226 ± 14.5 | – | – | – | –
415 | – | CCOC(=O)CCC(NC(=O)C(NC(=O)CNC(=O)C=Cc1ccc(O)c(OC)c1)C(C)C)C(=O)OCC (stereo not drawn) [compound 5] | – | – | – | – | – | –
337 | 5900 ± 1790 | CCOCc1nc2c(N)nc3ccccc3c2n1CC(C)(C)N [compound 7, reference compound] | – | 1820 ± 97 | – | – | – | –

Structure (SMILES) | solubility kinetic [1] [µM] | EC50 (human TLR8) [nM] | EC50 (human NOD2; [2]) [nM] | EC50 (human TLR7) [nM] | Boost in solubility over conjugate 2 ([1]; ratio of kinetic solubilities in PBS) [fold] | TLR7 agonistic activity (in words) (human TLR7) | Enhancement of TLR7 activity over 22 and 29 (human TLR7; ratio of EC50 values) [fold] | EC50 (human NOD2) [nM]
CCCCOc1nc(N)c2nc(O)n(Cc3ccc(C(=O)NCCOCCOCCNC(=O)CC[C@@H](NC(=O)[C@@H](NC(=O)CNC(=O)/C=C/c4ccc(O)c(OC)c4)C(C)C)C(=O)OCC)cc3)c2n1 [compound 22] | 85.4 | – | > 10000 | 419 | ~25 | activated TLR7 in the midnanomolar range | – | –
CCCCOc1nc(N)c2nc(O)n(Cc3ccc(C(=O)NCCCOCCOCCOCCCNC(=O)CC[C@@H](NC(=O)[C@@H](NC(=O)CNC(=O)/C=C/c4ccc(O)c(OC)c4)C(C)C)C(=O)OCC)cc3)c2n1 [compound 23] | 38.6 | – | > 10000 | 165 | – | activated TLR7 in the midnanomolar range | 2.5 | –
CCCCOc1nc(N)c2nc(O)n(Cc3ccc(C(=O)NCCCCCCNC(=O)CC[C@@H](NC(=O)[C@@H](NC(=O)CNC(=O)/C=C/c4ccc(O)c(OC)c4)C(C)C)C(=O)OCC)cc3)c2n1 [compound 24] | 2.8 | – | 6160 ± 1250 | 238 | – | activated TLR7 in the midnanomolar range | – | 6200
CCCCOc1nc(N)c2nc(O)n(Cc3ccc(C(=O)NCCOCCOCCNC(=O)[C@@H](CCC(=O)OCC)NC(=O)[C@@H](NC(=O)CNC(=O)/C=C/c4ccc(O)c(OC)c4)C(C)C)cc3)c2n1 [compound 26] | 9.2 | – | > 10000 | 247 | – | activated TLR7 in the midnanomolar range | – | –
CCCCOc1nc(N)c2nc(O)n(Cc3ccc(C(=O)NCCOCCOCCOCCn4cc(CNC(=O)CC[C@@H](NC(=O)[C@@H](NC(=O)CNC(=O)/C=C/c5ccc(O)c(OC)c5)C(C)C)C(=O)OCC)nn4)cc3)c2n1 [compound 29] | 35.4 | – | > 10000 | 391 | – | activated TLR7 in the midnanomolar range | – | –
